Patent publication US20240002361A1, “COMPOSITIONS AND METHODS FOR BLOCKING NEUROPILIN RECEPTOR 1 FOR THE TREATMENT OF PAIN AND PREVENTION OF VIRAL ENTRY” (Arizona Board of Regents on Behalf of the University of …, priority 2020, published 2024)
Values after ≈ are worked out from the molar mass of the structure shown. Values joined by “and” are separate entries in the source; they are usually repeats but may differ in a detail not shown here. Equal entries are not always repeated.

Experiments:
physchem = type: physicochemical; details: for logD: pH 7.4; for solubility kinetic: pH 7.4, aqueous buffer, kinetic from dmso stock
Experimental: (§1) Additionally, an initial absorption, distribution, metabolism, and excretion (ADME) profile of the compound series was performed (Table 4).

NRP-1/VEGF-A interaction [1] = target: T1, NRP-1/VEGF-A interaction (Homo sapiens, UniProt O14786); assay: ELISA-based NRP1-VEGF-A165 protein binding assay (concentration-response, IC50); details: 20 nM biotinylated hVEGF-A165 with 4 μg/ml heparin, n=3, read-out: Calculated IC50 values of inhibiting the NRP-1/VEGF-A interaction
T1 construct: coated with the extracellular domain of human NRP-1 (containing the a1a2 and the b1b2 regions); purchased Fisher, Hampton, NH 50-101-8343
T1 sequence (O14786 22-856 limits assumed): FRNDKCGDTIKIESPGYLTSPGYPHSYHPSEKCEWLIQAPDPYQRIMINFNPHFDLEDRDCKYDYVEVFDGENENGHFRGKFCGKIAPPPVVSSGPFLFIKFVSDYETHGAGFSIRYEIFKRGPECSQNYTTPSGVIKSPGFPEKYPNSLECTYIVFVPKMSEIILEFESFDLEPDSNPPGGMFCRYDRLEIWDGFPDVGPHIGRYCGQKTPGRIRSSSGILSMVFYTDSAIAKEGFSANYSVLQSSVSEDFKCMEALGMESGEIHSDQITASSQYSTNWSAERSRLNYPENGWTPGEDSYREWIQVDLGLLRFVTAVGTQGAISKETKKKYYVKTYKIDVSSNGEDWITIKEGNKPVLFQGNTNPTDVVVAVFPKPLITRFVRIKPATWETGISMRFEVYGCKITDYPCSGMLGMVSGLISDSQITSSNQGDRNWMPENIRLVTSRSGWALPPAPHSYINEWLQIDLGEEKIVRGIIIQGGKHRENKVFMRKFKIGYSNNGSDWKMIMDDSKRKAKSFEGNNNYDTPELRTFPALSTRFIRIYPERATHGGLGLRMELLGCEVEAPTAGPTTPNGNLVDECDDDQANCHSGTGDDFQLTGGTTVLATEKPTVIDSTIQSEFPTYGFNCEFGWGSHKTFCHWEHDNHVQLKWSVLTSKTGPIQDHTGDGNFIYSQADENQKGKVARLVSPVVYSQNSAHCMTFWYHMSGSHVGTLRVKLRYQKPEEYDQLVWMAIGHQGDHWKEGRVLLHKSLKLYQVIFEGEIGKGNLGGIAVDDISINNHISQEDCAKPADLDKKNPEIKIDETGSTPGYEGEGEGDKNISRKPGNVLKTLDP
Experimental: Plates (96-well, Nunc Maxisorp; Thermo Fisher Scientific, Waltham, MA, USA) were coated with human Neuropilin-1-Fc (200 ng per well, Cat #50-101-8343, Fisher, Hampton, NH) and incubated at 4° C. overnight. The following day, the plates were washed and blocked with 3% BSA in PBS to minimize non-specific adsorptive binding to the plates. EG00229 (Cat #6986, Tocris) or the indicated compounds were added at different concentrations and incubated for 30 min at room temperature prior to adding biotinylated human VEGF-A165 (Cat #BT10543-025, R&D systems) at 20 nM with 4 μg/ml of heparin. As a negative control, some wells received PBS containing 3% BSA and as a positive control only hVEGF-A165 was used. The plates were incubated at room temperature with shaking for 2 h. Next, the plates were washed with PBS 0.05% Tween to eliminate unbound protein. Bound biotinylated VEGF was detected by streptavidin-HRP (Cat #016-030-084, Jackson immunoResearch). Tetramethylbenzidine (Cat #DY999, R&D Systems, St. Louis, MO) was used as the colorimetric substrate. The optical density of each well was determined immediately, using a microplate reader (Multiskan Ascent; Thermo Fisher Scientific) set to 450 nm with a correction wavelength of 570 nm. Percentage of inhibition was calculated by the following formula: […]
where S is the optical density measured in the wells with the compounds, N is the optical density measured in the negative control wells and P is the optical density in the positive control wells. The IC50 was calculated using a non-linear regression function with GraphPad Prism Version 9. The data are presented as log (inhibitor) [M] versus normalized response-variable slope. Data are the means±S.E.M. of three independent experiments.
Finally, the ability of the compounds to interfere with the NRP-1NEGF-A interaction was evaluated using an enzyme linked immunosorbent assay (ELISA), as previously described (Moutal, et al., Pain 2021, 12(1), 243-252). Plates were coated with the extracellular domain of human NRP-1 (containing the a1a2 and the b1b2 regions) and the compounds were added to disrupt the NRP-1NEGF-A interaction. The biotinylated human VEGF-A used in the experiments described above (Moutal, et al., Pain 2021, 12(1), 243-252) was discontinued. For the instant studies, biotinylated hVEGF-A (Cat #BT10543-025, R&D systems) was used. Because of that, the known NRP-1 antagonist EG00229 and compound 4 from the above series of inhibitors (Moutal, et al., Pain 2021, 12(1), 243-252) were also tested in the instant studies.

in vitro = in vitro ADME; details: microsomes
Experimental: as §1

HepG2 cells = assay: Cell proliferation and cytotoxicity in HepG2 cells (CellTiterGlo); type: cell-based; details: Homo sapiens, 48 h
Experimental: as §1

NRP-1/VEGF-A interaction [2] = target: T1, NRP-1/VEGF-A interaction; assay: ELISA-based NRP1-VEGF-A165 protein binding assay (single concentration); details: compounds 12.5 μM (Spike S1 100 nM), biotinylated VEGF-A165 10 nM; ± standard error of the mean, n = 11
VSV-eGFP-SARS-CoV-2 = type: cell-based
pY1175 VEGFR2 = assay: In cell Western for detecting inhibition of VEGFR2 activation by VEGF-A165; type: cell-based, mouse; details: CAD cells, compounds 12.5 μM or Spike 100 nM, 1 nM VEGF-A165, 1 hour

Compound | logD (physchem) | solubility kinetic (physchem) [µM] | IC50 (NRP-1/VEGF-A interaction [1]) | half-life (in vitro; human) [min] | half-life (in vitro; mouse) [min] | half-life (in vitro; rat) [min] | IC50 (HepG2 cells) [µM] | Rel % inhibition (NRP-1/VEGF-A interaction [2]) [%] | inhibition of VSV-eGFP-SARS-CoV-2 antiviral activity (VSV-eGFP-SARS-CoV-2) | inhibition of VEGF-A stimulated increased phosphorylation of VEGFR2 (pY1175) (pY1175 VEGFR2)
COc1cccc(-c2nc(Nc3c[nH]c(C(=O)O)c3)cc(=O)[nH]2)c1 [1g′, 4-[[2-(3-methoxyphenyl)-6-oxo-1H-pyrimidin-4-yl]amino]-1H-pyrrole-2-carboxylic acid] | -0.62 | > 200 | 28.2 µM | > 120 | > 120 | > 120 | > 30 | – | – | –
COc1cccc(-c2cc(=O)[nH]c(Nc3c[nH]c(C(=O)O)c3)n2)c1 [1g′-iso, 4-[[4-(3-methoxyphenyl)-6-oxo-1H-pyrimidin-2-yl]amino]-1H-pyrrole-2-carboxylic acid] | -0.38 | > 200 | 32 µM | > 120 | > 120 | > 120 | > 30 | – | – | –
COc1cccc(-c2cc(=O)[nH]c(Nc3ccccc3)n2)c1 [Compound 1] | – | – | – | – | – | – | – | 56 ± 7 | – | –
COc1cccc(-c2cc(=O)[nH]c(Nc3ccnc(N)c3)n2)c1 [Compound 1a, 2-[(2-amino-4-pyridyl)amino]-4-(3-methoxyphenyl)-1H-pyrimidin-6-one] | 1.64 | 184 (≈ 56.9 µg/mL) | 214 µM | > 120 | 29.3 | 3.8 | > 30 | – | – | –
COc1cccc(-c2nc(Nc3ccccc3)cc(=O)[nH]2)c1 [Compound 1b, 4-anilino-2-(3-methoxyphenyl)-1H-pyrimidin-6-one] | 3.78 | 3.5 (≈ 1.03 µg/mL) | 112 µM | 14.8 | 9.4 | 8.3 | > 30 | – | – | –
COc1cccc(-c2cc(Nc3ccccc3)[nH]c(=O)n2)c1 [Compound 1b-iso, 6-anilino-4-(3-methoxyphenyl)-1H-pyrimidin-2-one] | 2.78 | 4.7 (≈ 1.38 µg/mL) | 105 µM | 102 | 22 | 4.4 | > 30 | – | – | –
COc1cccc(-c2cc(=O)[nH]c(Nc3cccc(O)c3)n2)c1 [Compound 1c, 2-(3-hydroxyanilino)-4-(3-methoxyphenyl)-1H-pyrimidin-6-one] | 2.49 | 14.2 (≈ 4.39 µg/mL) | 23.1 µM | > 120 | 71.7 | 4.4 | > 30 | – | – | –
COc1cc(-c2cc(=O)[nH]c(Nc3ccc(Cl)c(O)c3)n2)ccn1 [Compound 1d, 2-(4-chloro-3-hydroxy-anilino)-4-(2-methoxy-4-pyridyl)-1H-pyrimidin-6-one] | 3.15 | 19.4 (≈ 6.69 µg/mL) | 134 µM | 28.4 | 59.7 | 14.1 | > 30 | – | – | –
COc1cc(-c2cc(=O)[nH]c(Nc3ccccc3)n2)ccn1 [Compound 1s, 2-anilino-4-(2-methoxy-4-pyridyl)-1H-pyrimidin-6-one] | 3.15 | 11.5 (≈ 3.38 µg/mL) | 1030 µM | 16.6 | 13.6 | 9.4 | > 30 | – | – | –
COc1cccc(-c2cc(=O)[nH]c(Nc3cc[nH]n3)n2)c1 [Compound 1t, 4-(3-methoxyphenyl)-2-(1H-pyrazol-3-ylamino)-1H-pyrimidin-6-one] | 2.67 | 48.7 (≈ 13.8 µg/mL) | 128 µM | 64.5 | 4.5 | 12.7 | > 30 | – | – | –
COc1cccc(-c2cc(=O)[nH]c(Nc3ccccc3)n2)n1 [Compound 1u, 2-anilino-4-(6-methoxy-2-pyridyl)-1H-pyrimidin-6-one] | 3.51 | 10.4 (≈ 3.06 µg/mL) | 369 µM | 18.9 | 9.6 | 3.9 | > 30 | – | – | –
COc1ccc(C)c(-c2cc(=O)[nH]c(Nc3ccccc3)n2)c1 [Compound 1v, 2-anilino-4-(5-methoxy-2-methyl-phenyl)-1H-pyrimidin-6-one] | 2.91 | 8 (≈ 2.46 µg/mL) | – | > 120 | > 120 | 4.7 | > 30 | – | – | –
CC(C)Cc1cc(C(=O)NCC2CCOC2)nc(=O)[nH]1 (stereo not shown) [Compound 2] | – | – | – | – | – | – | – | 59 ± 11 | – | –
CC(C)Cc1cc(C(=O)NCCO)nc(=O)[nH]1 [Compound 2a, N-(2-hydroxyethyl)-6-isobutyl-2-oxo-1H-pyrimidine-4-carboxamide] | 0.02 | > 200 | ≤ 32 µM and 1.8 µM | > 120 | > 120 | > 120 | > 30 | – | – | –
COc1ccccc1Nc1nc(-c2cnc(N3CCCC3)nc2C)cc(=O)[nH]1 [Compound 5] | – | – | – | – | – | – | – | 42 ± 10 | – | –
COc1ccccc1Nc1nncc(=O)[nH]1 [Compound 7] | – | – | – | – | – | – | – | 18 ± 19 | – | –
O=c1cnnc(Nc2ccccc2O)[nH]1 [Compound 8] | – | – | – | – | – | – | – | 24 ± 16 | – | –
Cc1cc(CN(C)Cc2cc(=O)[nH]c(=O)[nH]2)no1 [Compound 9] | – | – | – | – | – | – | – | 43 ± 8 | – | –
O=c1cc(Nc2cccc(O)c2)[nH]c(=O)[nH]1 [Compound 9c, 6-(3-hydroxyanilino)-1H-pyrimidine-2,4-dione] | 0.38 | > 200 | 469 µM | > 120 | > 120 | > 120 | > 30 | – | – | –
O=C(O)Cc1cnc(-c2cccnc2)[nH]c1=O [Compound 11] | – | – | – | – | – | – | – | 43 ± 16 | – | –
O=C(/C=C/c1ccc(O)c(O)c1)O[C@@H](C(=O)O)[C@@H](O)C(=O)O [Compound 17] | – | – | – | – | – | – | – | 12 ± 16 | ~15% | –
NC(N)=NCCC[C@H](NC(=O)c1sccc1NS(=O)(=O)c1cccc2nsnc12)C(=O)O [EG00229, reference compound] | – | – | 1370 µM | – | – | – | – | 33 ± 10 | ineffective | blocked
